# Test system: NOMO1
# Assay: cell viability relative to DMSO control; higher = less cytotoxic
# Settings: 48 h
# Summary of the method: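 NOMO1 or SEM cells were plated at 500 cells/well and P12-Ichikawa cells at 1000 cells/well in 1536-well plates (5 μl), after each leukemia line had been adapted for at least four passages in each medium. Pin dosing delivered library compounds in DMSO at 11 threefold concentrations, 47 μM to 0.79 nM. CellTiter-Glo One luminescence was read after 48 h at 37°C. Viability is reported as a per-plate percentage of DMSO wells, with cell-free wells as background.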
# [1] = HPLM + 10% dialyzed FBS, 0.000781 µM
# [2] = HPLM + 10% dialyzed FBS, 0.00234 µM
# [3] = HPLM + 10% dialyzed FBS, 0.00702 µM
# [4] = HPLM + 10% dialyzed FBS, 0.0211 µM
# [5] = HPLM + 10% dialyzed FBS, 0.0632 µM
# [6] = HPLM + 10% dialyzed FBS, 0.19 µM
# [7] = HPLM + 10% dialyzed FBS, 0.569 µM
# [8] = HPLM + 10% dialyzed FBS, 1.71 µM
# [9] = HPLM + 10% dialyzed FBS, 5.12 µM
# [10] = HPLM + 10% dialyzed FBS, 15.4 µM
# [11] = HPLM + 10% dialyzed FBS, 46.1 µM
# [12] = RPMI 5 mM glucose + 10% FBS, 0.000781 µM
# [13] = RPMI 5 mM glucose + 10% FBS, 0.00234 µM
# [14] = RPMI 5 mM glucose + 10% FBS, 0.00702 µM
# [15] = RPMI 5 mM glucose + 10% FBS, 0.0211 µM
# [16] = RPMI 5 mM glucose + 10% FBS, 0.0632 µM
# [17] = RPMI 5 mM glucose + 10% FBS, 0.19 µM
# [18] = RPMI 5 mM glucose + 10% FBS, 0.569 µM
# [19] = RPMI 5 mM glucose + 10% FBS, 1.71 µM
# [20] = RPMI 5 mM glucose + 10% FBS, 5.12 µM
# [21] = RPMI 5 mM glucose + 10% FBS, 15.4 µM
# [22] = RPMI 5 mM glucose + 10% FBS, 46.1 µM
# [23] = RPMI 5 mM glucose + 10% dialyzed FBS, 0.000781 µM
# [24] = RPMI 5 mM glucose + 10% dialyzed FBS, 0.00234 µM
# [25] = RPMI 5 mM glucose + 10% dialyzed FBS, 0.00702 µM
# [26] = RPMI 5 mM glucose + 10% dialyzed FBS, 0.0211 µM
# [27] = RPMI 5 mM glucose + 10% dialyzed FBS, 0.0632 µM
# [28] = RPMI 5 mM glucose + 10% dialyzed FBS, 0.19 µM
# [29] = RPMI 5 mM glucose + 10% dialyzed FBS, 0.569 µM
# [30] = RPMI 5 mM glucose + 10% dialyzed FBS, 1.71 µM
# [31] = RPMI 5 mM glucose + 10% dialyzed FBS, 5.12 µM
# [32] = RPMI 5 mM glucose + 10% dialyzed FBS, 15.4 µM
# [33] = RPMI 5 mM glucose + 10% dialyzed FBS, 46.1 µM
smiles,measurement,setting,value
Cc1c(CN2CCN(C(=O)[C@H](C)O)CC2)sc2c(N3CCOCC3)nc(-c3cnc(N)nc3)nc12,cell viability,[1],77.8%
same,cell viability,[2],100%
same,cell viability,[3],89.8%
same,cell viability,[4],90.4%
same,cell viability,[5],86.5%
same,cell viability,[6],71.5%
same,cell viability,[7],53.9%
same,cell viability,[8],46.9%
same,cell viability,[9],33.7%
same,cell viability,[10],39.4%
same,cell viability,[11],40.5%
same,cell viability,[12],79.2%
same,cell viability,[13],93.6%
same,cell viability,[14],93.9%
same,cell viability,[15],88.6%
same,cell viability,[16],91.5%
same,cell viability,[17],86.9%
same,cell viability,[18],69.1%
same,cell viability,[19],58.2%
same,cell viability,[20],52.5%
same,cell viability,[21],47.9%
same,cell viability,[22],43.9%
same,cell viability,[23],79.7%
same,cell viability,[24],94%
same,cell viability,[25],81.2%
same,cell viability,[26],74.5%
same,cell viability,[27],69.5%
same,cell viability,[28],73.7%
same,cell viability,[29],59.1%
same,cell viability,[30],45.4%
same,cell viability,[31],47.8%
same,cell viability,[32],44.6%
same,cell viability,[33],39.3%
COc1cccc2cc(-c3nc(C4CCC(C(=O)O)CC4)n4ncnc(N)c34)[nH]c12 (stereo unspecified),cell viability,[1],116%
same,cell viability,[2],124%
same,cell viability,[3],102%
same,cell viability,[4],119%
same,cell viability,[5],99.8%
same,cell viability,[6],94.7%
same,cell viability,[7],68.2%
same,cell viability,[8],38.7%
same,cell viability,[9],34.8%
same,cell viability,[10],37.3%
same,cell viability,[11],47.1%
same,cell viability,[12],109%
same,cell viability,[13],113%
same,cell viability,[14],107%
same,cell viability,[15],106%
same,cell viability,[16],105%
same,cell viability,[17],105%
same,cell viability,[18],98.4%
same,cell viability,[19],55.3%
same,cell viability,[20],30%
same,cell viability,[21],26.3%
same,cell viability,[22],19.9%
same,cell viability,[23],105%
same,cell viability,[24],104%
same,cell viability,[25],108%
same,cell viability,[26],115%
same,cell viability,[27],102%
same,cell viability,[28],105%
same,cell viability,[29],88.1%
same,cell viability,[30],53.6%
same,cell viability,[31],41.7%
same,cell viability,[32],26.9%
same,cell viability,[33],27.8%
COC(=O)Nc1nc2cc(C(=O)c3cccs3)ccc2[nH]1,cell viability,[1],106%
same,cell viability,[2],88.5%
same,cell viability,[3],113%
same,cell viability,[4],81.8%
same,cell viability,[5],43.6%
same,cell viability,[6],34.2%
same,cell viability,[7],32.3%
same,cell viability,[8],44%
same,cell viability,[9],57.7%
same,cell viability,[10],57.3%
same,cell viability,[11],53.1%
same,cell viability,[23],98.2%
same,cell viability,[24],113%
same,cell viability,[25],129%
same,cell viability,[26],101%
same,cell viability,[27],53.6%
same,cell viability,[28],28.1%
same,cell viability,[29],33.7%
same,cell viability,[30],36.1%
same,cell viability,[31],36.2%
same,cell viability,[32],40.5%
same,cell viability,[33],42.2%
CC(C)n1nc(-c2cc3cc(O)ccc3[nH]2)c2c(N)ncnc21,cell viability,[1],79%
same,cell viability,[2],124%
same,cell viability,[3],110%
same,cell viability,[4],107%
same,cell viability,[5],99.7%
same,cell viability,[6],94.7%
same,cell viability,[7],65.7%
same,cell viability,[8],61.6%
same,cell viability,[9],44.7%
same,cell viability,[10],31.2%
same,cell viability,[11],27%
same,cell viability,[12],96.2%
same,cell viability,[13],113%
same,cell viability,[14],104%
same,cell viability,[15],105%
same,cell viability,[16],104%
same,cell viability,[17],96.6%
same,cell viability,[18],88.1%
same,cell viability,[19],90.2%
same,cell viability,[20],71.8%
same,cell viability,[21],44.1%
same,cell viability,[22],23%
same,cell viability,[23],111%
same,cell viability,[24],110%
same,cell viability,[25],100%
same,cell viability,[26],101%
same,cell viability,[27],101%
same,cell viability,[28],90.9%
same,cell viability,[29],76.7%
same,cell viability,[30],78%
same,cell viability,[31],54.2%
same,cell viability,[32],34.1%
same,cell viability,[33],14.1%
